From ChEMBL document CHEMBL4346677, “Compounds based on 5-(perylen-3-ylethynyl)uracil scaffold: High activity against tick-borne encephalitis virus and non-specific activity against enterovirus A” (Eur J Med Chem, 2019) come the findings set out here.

For one data set, the system named is Human alphaherpesvirus 1. As to the kind of experiment: Antiviral activity against HSV-1 infected in African green monkey Vero cells preincubated with virus for 5 mins. In kind it is functional, organism-based. To be noted: Human alphaherpesvirus 1, Vero.
Data set [1] can be described thus: Cytotoxicity against PEK cells assessed as reduction in cell viability after 24 hrs by microscopic method. It counts as cell-based, Sus scrofa. Particulars: pig.
Data set [2] can be described thus: Cytotoxicity against African green monkey Vero cells assessed as reduction in cell viability after 7 days by microscopic method. To be noted: chlorocebus sabaeus. In kind it is cell-based.
The nature of data set [3]: Solubility of compound in 15% DMSO by spectrophotometric analysis. In kind it is physicochemical.
A short description of data set [4]: Cytotoxicity against African green monkey Vero cells assessed as reduction in cell viability after 24 hrs by microscopic method. Particulars: chlorocebus sabaeus. It counts as cell-based.
The next data set has as its system Echovirus. As to the kind of experiment: Antiviral activity against Echovirus 30 isolate 48461. It counts as functional, organism-based.
Data set [5] in a line: Cytotoxicity against PEK cells assessed as formation of syncytium-like patterns of cells at 50 uM after 7 days by microscopic method. In kind it is cell-based, Sus scrofa. Particulars: pig, 168 h.
Data set [6] is described as follows: Cytotoxicity against human RD cells assessed as reduction in cell viability after 24 hrs by microscopic method. In kind it is cell-based.
Data set [7] has as its system RD. As to the kind of experiment: Cytotoxicity against human RD cells assessed as formation of syncytium-like patterns of cells at 50 uM after 7 days by microscopic method. It counts as cell-based. To be noted: 168 h.
Data set [8] is described as follows: Cytotoxicity against human RD cells assessed as reduction in cell viability after 7 days by microscopic method. In kind it is cell-based.
For data set [9], the system named is Tick-borne encephalitis virus. As to the kind of experiment: Antiviral activity against TBEV Absettarov infected in PEK cells assessed as plaque reduction preincubated for 1 hr followed by overlaying with 1.26% methylcellulose and measured after 6 days by gentian violet staining-based assay. It counts as functional, organism-based.
Data set [10] has as its system Vero. The experiment in a line: Cytotoxicity against African green monkey Vero cells assessed as formation of syncytium-like patterns of cells at 50 uM after 7 days by microscopic method. It counts as cell-based. Particulars: chlorocebus sabaeus, 168 h.
Data set [11] is described as follows: Cytotoxicity against PEK cells assessed as reduction in cell viability after 7 days by microscopic method. It counts as cell-based, Sus scrofa. To be noted: pig.
A further data set has as its system Poliovirus 1. As to the kind of experiment: Antiviral activity against poliovirus type 1 sabin 1. It counts as functional, organism-based.
Another data set concerns Enterovirus A71. The experiment in a line: Antiviral activity against Enterovirus A71 isolate 46973 infected in human RD cells assessed as reduction in virus induced cytopathic effect preincubated with viral suspension for 1 hr followed by cell addition measured after 5 to 7 days. In kind it is functional, organism-based. (Cytopathic effects are the visible damage that an infection or toxin causes in cultured cells.)

Data set [12] can be described thus: Selectivity index, ratio of CC50 for MDCK cells to EC50 for H1N1 infected in MDCK cells. To be noted: dog, read-out: Ratio CC50/EC50. It counts as toxicity, cell-based.
In data set [13] the test system is Vesicular stomatitis virus. The experiment in a line: Antiviral activity against VSV infected in African green monkey Vero cells assessed as plaque reduction preincubated for 10 mins inocula removed after 1 hr followed by overlaying with 2% methylcellulose and measured after 1 to 2 days by crystal violet staining based assay. In kind it is functional, organism-based.

The subject of a further data set is Hepatitis C virus. As to the kind of experiment: Antiviral activity against HCV JFH1 infected in human Huh7.5 cells assessed as NS3 expression by western blot analysis. To be noted: JFH1, Huh7.5. It counts as functional, organism-based, Hepacivirus hominis. (In general: A western blot detects proteins with antibodies after separation by electrophoresis.)
Data set [14] can be described thus: Selectivity index, ratio of CC50 for African green monkey Vero cells to EC50 for VSV infected in Vero cells. To be noted: read-out: Ratio CC50/EC50. It counts as toxicity, cell-based.
The subject of a further data set is Murid betaherpesvirus 1. As to the kind of experiment: Antiviral activity against mCMV infected in mouse NIH3T3 cells assessed as reduction in virus induced cytopathogenicity. It counts as functional, organism-based. Particulars: Murid betaherpesvirus 1, NIH3T3.
Another data set relates to Human alphaherpesvirus 2. As to the kind of experiment: Antiviral activity against HSV-2 infected in African green monkey Vero cells assessed as plaque reduction preincubated for 10 mins inocula removed after 1 hr followed by overlaying with 2% methylcellulose and measured after 1 to 2 days by crystal violet staining based assay. In kind it is functional, organism-based. To be noted: Human alphaherpesvirus 2, Vero.

The nature of data set [15]: Selectivity index, ratio of CC50 for mouse NIH3T3 cells to EC50 for mCMV infected in NIH3T3 cells. In kind it is toxicity, cell-based. Particulars: read-out: Ratio CC50/EC50.
Data set [16] in a line: Selectivity index, ratio of CC50 for African green monkey Vero cells to EC50 for HSV-2 infected in Vero cells. It counts as toxicity, cell-based. To be noted: read-out: Ratio CC50/EC50.
Data set [17] concerns Influenza A virus. The experiment in a line: Antiviral activity against influenza A virus H3N2 infected in dog MDCK cells assessed as plaque reduction preincubated for 10 mins inocula removed after 1 hr followed by overlaying with 0.8% agarose and measured after 1 to 2 days by crystal violet staining based assay. In kind it is functional, organism-based.
Data set [18] deals with Influenza A virus. The experiment in a line: Antiviral activity against influenza A virus H1N1 infected in dog MDCK cells assessed as plaque reduction preincubated for 10 mins inocula removed after 1 hr followed by overlaying with 0.8% agarose and measured after 1 to 2 days by crystal violet staining based assay. In kind it is functional, organism-based.
A short description of data set [19]: Selectivity index, ratio of CC50 for African green monkey Vero cells to EC50 for Sindbis infected in Vero cells. It counts as toxicity, cell-based. To be noted: read-out: Ratio CC50/EC50.
For a further data set, the system named is Sindbis virus. The experiment in a line: Antiviral activity against Sindbis virus infected in African green monkey Vero cells assessed as plaque reduction preincubated for 10 mins inocula removed after 1 hr followed by overlaying with 2% methylcellulose and measured after 1 to 2 days by crystal violet staining based assay. It counts as functional, organism-based.

Data set [20] is described as follows: Selectivity index, ratio of CC50 for African green monkey Vero cells to EC50 for HSV-1 infected in Vero cells. It counts as toxicity, cell-based. To be noted: read-out: Ratio CC50/EC50.
Data set [21] can be described thus: Selectivity index, ratio of CC50 for MDCK cells to EC50 for H3N2 infected in MDCK cells. It counts as toxicity, cell-based. To be noted: dog, read-out: Ratio CC50/EC50.
Data set [22] is described as follows: Selectivity index, ratio of CC50 for human Huh7.5 cells to EC50 for HCV JFH1 infected in Huh7.5 cells. It counts as toxicity, cell-based. Particulars: read-out: Ratio CC50/EC50.
The test system of data set [23] is RD. The experiment in a line: Cytotoxicity against human RD cells assessed as reduction in metabolic activity at >20 uM after 24 hrs by CellTiter-Blue assay. In kind it is ADME, cell-based. Background: Alamar Blue is a resazurin reagent that responds to reducing activity.
Data set [24] is described as follows: Cytotoxicity against PEK cells assessed as reduction in metabolic activity at >20 uM after 24 hrs by CellTiter-Blue assay. It counts as ADME, cell-based, Sus scrofa. To be noted: pig.
Data set [25] deals with Vero. As to the kind of experiment: Cytotoxicity against African green monkey Vero cells assessed as reduction in metabolic activity at >20 uM after 24 hrs by CellTiter-Blue assay. It counts as ADME, cell-based. Particulars: chlorocebus sabaeus.

≈ marks a conversion by molar mass, not a printed value. Calls of active or inactive are those of the source. The calls are words filed in the database; no cut-off is given here.

In the case of `O=c1[nH]c(=O)n([C@H]2CC[C@@H](CO)O2)cc1C#Cc1ccc2c3cccc4cccc(c5cccc1c52)c43`, the midpoint of the response in the data set on Human alphaherpesvirus 1, the EC50, lay at 87 nM.
Turning to `CC(C)(C)C(=O)OC[C@@H]1CC[C@H](n2cc(C#Cc3ccc4c5cccc6cccc(c7cccc3c74)c65)c(=O)[nH]c2=O)O1`, in the data set on Human alphaherpesvirus 1, the EC50 is 190 nM.
Turning to `CC(C)(C)C(=O)OCn1c(=O)c(C#Cc2ccc3c4cccc5cccc(c6cccc2c63)c54)cn(CC(=O)NCCCCO)c1=O`, the CC50 at 24 h in [1] was more than 50000 nM; in data set [4], more than 50000 nM; in data set [6], 19000 nM. Moreover, the CC50 at 168 h in data set [2] was more than 50000 nM; in data set [8] it was 38000 nM; in data set [11], more than 50000 nM. In data set [3], this compound showed a solubility of 5.3 µM (≈ 3.34 µg/mL). Besides, the outcome with Echovirus and in the data set on Poliovirus 1 was inactive. Moreover, the Activity result (in data set [5]; in the data set with RD [7]; in the data set with Vero [10]) was “Toxic” throughout. In addition, the EC50 in data set [9] is 0.69 nM; in the data set with Enterovirus A71, “Not Active”.
As to `O=c1[nH]c(=O)n([C@@H]2O[C@H](CO)[C@@H](O)[C@@H]2O)cc1C#Cc1ccc2c3cccc4cccc(c5cccc1c52)c43`, the selectivity ratio in [12], in [14], in data set [15], in data set [16], in [19] and in data set [20] was more than 3000 in each case. Besides, the selectivity ratio in [21] and in data set [22] was more than 3000 throughout. In addition, in [1], the CC50 at 24 h was more than 50000 nM. Also, the EC50 (in [13]; in the data set with Hepatitis C virus; in the data set on Murid betaherpesvirus 1; in the data set on Human alphaherpesvirus 2; in the data set with Influenza A virus [17]; in the data set with Influenza A virus [18]) was 2 to 283 nM each time. For the same compound, the figures for the EC50 (in data set [9]; with Sindbis virus; in the data set with Human alphaherpesvirus 1) were 21 nM, 2 to 283 nM and 2 to 283 nM, respectively. The outcome with Echovirus and with Poliovirus 1 was inactive. The Activity entry (in data set [5]; in the data set with RD [7]; with Vero [10]) was “Toxic” in each case. For the same compound, the 50% cytotoxic concentration (CC50) at 168 h in data set [11] is more than 50000 nM.
With `O=C(Cn1cc(C#Cc2ccc3c4cccc5cccc(c6cccc2c63)c54)c(=O)[nH]c1=O)NCCCCO`, the CC50 at 24 h in data set [1] is more than 50000 nM; in [4], more than 50000 nM; in data set [6], 76000 nM. The CC50 at 168 h in [2] is more than 50000 nM; in data set [8], 81000 nM; in data set [11], more than 50000 nM. Besides, the Activity entry with RD [23] is reported as “Toxic”; in data set [5] it was “Toxic”; in the data set on RD [7], “Toxic”; in [24], “Non-Toxic”; in the data set with Vero [10], “Toxic”; in the data set with Vero [25] it was “Non-Toxic”. Besides, the result with Echovirus and in the data set with Poliovirus 1 was inactive. Further, the EC50 in data set [9] came to 20 nM; in the data set on Enterovirus A71 (Enterovirus A, isolate 46973, RD, read-out: EC50) it was 56000 nM.

As a reminder, the EC50 is the concentration at which the effect is half-maximal. The CC50 is the concentration that lowers cell viability or growth by half. As usually defined, the solubility is the concentration that dissolves in the medium under given conditions.
